Literature values, collected in patent US20240062912A1, “METHODS FOR DETERMINING LIVER FUNCTION COMPRISING A MULTI-COMPARTMENTAL MODEL” (HepQuant, LLC, priority 2022, published 2024).

Conditions: cited from earlier work
[1] = healthy controls, previous studies

[2H]C1([2H])C[C@@]2(C)[C@H](C[C@@H](O)[C@@H]3[C@@H]2C[C@H](O)[C@]2(C)[C@@H]([C@H](C)CCC(=O)O)CC[C@@H]32)C([2H])([2H])[C@@H]1O [d4-CA, cholic-acid-2,2,4,4-d4]
SHUNT (diseased liver): 30-90%
STAT (diseased liver): 0.6 to 5 µM
portal HFR (FLOW) (diseased liver): 20 to 2 mL/min/kg
average HFR (FLOW) [1]: 30 mL/min/kg
average SHUNT [1]: ~20%
average STAT value [1]: ~0.4
